Reference: US12077503B2, “Substituted cyclic amides and their use as herbicides” (FMC CORPORATION, priority 2015, dated 2024)

Experiments:
Format in all cases: in vivo
[1] = test system: barnyardgrass (Echinochloa crus-galli); assay: Test B flooded paddy test; conditions: Echinochloa crus-galli, 250 g ai/ha, Flood; 0 to 100 scale where 0 is no effect and 100 is complete control; read-out: Barnyardgrass plant response rating
Summary of the method: (§1)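 Compound goes directly into floodwater once pots are flooded 3 cm above soil, targeting plants at two leaves; the water depth is then held for the test duration. Plants sit 13–15 d in a greenhouse and are rated visually, 100 denoting complete control.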

[2] = test system: rice (Oryra sativa); assay: Test B flooded paddy test; conditions: Oryza sativa, 250 g ai/ha, Flood; 0 to 100 scale where 0 is no effect and 100 is complete control; read-out: Rice plant response rating
Summary of the method: as §1

[3] = test system: sedge, umbrella (small-flower umbrella sedge, Cyperus difformis); assay: Test B flooded paddy test; conditions: Cyperus difformis, 250 g ai/ha, Flood; 0 to 100 scale where 0 is no effect and 100 is complete control; read-out: Sedge, Umbrella plant response rating
Summary of the method: as §1

[4] = test system: ducksalad (Heteranthera limosa); assay: Test B flooded paddy test; conditions: Heteranthera limosa, 250 g ai/ha, Flood; 0 to 100 scale where 0 is no effect and 100 is complete control; read-out: Ducksalad plant response rating
Summary of the method: as §1

[5] = test system: pigweed (Amaranthus retroflexus); assay: Test A postemergence; conditions: Amaranthus retroflexus, post-emergence, 240 h, Postemergence, read-out: Pigweed plant response rating (0 to 100 scale); for pest or weed control at 125 g/ha: 125 g ai/ha, visual rating about 10 d after treatment; for pest or weed control at 31 g/ha: 31 g ai/ha, 0 is no effect, 100 is complete control
Summary of the method: (§2)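 Treatment is preemergence as a directed soil spray after planting, or postemergence at the one- to two-leaf stage, with test chemical in a non-phytotoxic solvent mixture plus surfactant. Plants stay in the greenhouse about 10 d before visual injury scoring on a 0 to 100 scale versus untreated controls.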

[6] = test system: giant foxtail (Setaria faberii); assay: Test A postemergence; conditions: Setaria faberi, post-emergence, 240 h, Postemergence, read-out: Foxtail, Giant plant response rating (0 to 100 scale); for pest or weed control at 125 g/ha: 125 g ai/ha, visual rating about 10 d after treatment; for pest or weed control at 31 g/ha: 31 g ai/ha, 0 is no effect, 100 is complete control
Summary of the method: as §2

[7] = test system: ryegrass, Italian (Italian ryegrass, Lolium multiflorum); assay: Test A postemergence; conditions: Lolium multiflorum, post-emergence, 240 h, Postemergence, read-out: Ryegrass, Italian plant response rating (0 to 100 scale); for pest or weed control at 125 g/ha: 125 g ai/ha, visual rating about 10 d after treatment; for pest or weed control at 31 g/ha: 31 g ai/ha, 0 is no effect, 100 is complete control
Summary of the method: as §2

[8] = test system: Galium (catchweed bedstraw, Galium aparine); assay: Test A postemergence; conditions: Galium, post-emergence, 240 h, Postemergence, read-out: Galium plant response rating (0 to 100 scale); for pest or weed control at 125 g/ha: 125 g ai/ha, visual rating about 10 d after treatment; for pest or weed control at 31 g/ha: 31 g ai/ha, 0 is no effect, 100 is complete control
Summary of the method: as §2

[9] = test system: wheat (Triticum aestivum); assay: Test A postemergence; conditions: Triticum aestivum, post-emergence, 240 h, Postemergence, read-out: Wheat plant response rating (0 to 100 scale); for plant injury at 125 g/ha: 125 g ai/ha, visual rating about 10 d after treatment; for plant injury at 31 g/ha: 31 g ai/ha, 0 is no effect, 100 is complete control
Summary of the method: as §2

[10] = test system: barnyardgrass (Echinochloa crus-galli); assay: Test A postemergence; conditions: Echinochloa crus-galli, post-emergence, 240 h, Postemergence; for pest or weed control at 125 g/ha: 125 g ai/ha, visual rating about 10 d after treatment, read-out: Barnyardgrass plant response rating (0 to 100 scale, 0 no effect, 100 complete control); for pest or weed control at 31 g/ha: 31 g ai/ha, 0 is no effect, 100 is complete control, read-out: Barnyardgrass plant response rating (0 to 100 scale)
Summary of the method: as §2

[11] = test system: corn (Zea mays); assay: Test A postemergence; conditions: Zea mays, post-emergence, 240 h, Postemergence, read-out: Corn plant response rating (0 to 100 scale); for plant injury at 125 g/ha: 125 g ai/ha, visual rating about 10 d after treatment; for plant injury at 31 g/ha: 31 g ai/ha, 0 is no effect, 100 is complete control
Summary of the method: as §2

[12] = test system: Kochia (Kochia scoparia); assay: Test A postemergence; conditions: Bassia scoparia, post-emergence, 240 h, Postemergence, read-out: Kochia plant response rating (0 to 100 scale); for pest or weed control at 125 g/ha: 125 g ai/ha, visual rating about 10 d after treatment; for pest or weed control at 31 g/ha: 31 g ai/ha, 0 is no effect, 100 is complete control
Summary of the method: as §2

[13] = test system: ragweed (common ragweed, Ambrosia elatior); assay: Test A postemergence; conditions: Ambrosia artemisiifolia, post-emergence, 240 h, Postemergence, read-out: Ragweed plant response rating (0 to 100 scale); for pest or weed control at 125 g/ha: 125 g ai/ha, visual rating about 10 d after treatment; for pest or weed control at 31 g/ha: 31 g ai/ha, 0 is no effect, 100 is complete control
Summary of the method: as §2

[14] = test system: blackgrass (Alopecurus myosuroides); assay: Test A postemergence; conditions: Alopecurus myosuroides, post-emergence, 240 h, Postemergence, read-out: Blackgrass plant response rating (0 to 100 scale); for pest or weed control at 125 g/ha: 125 g ai/ha, visual rating about 10 d after treatment; for pest or weed control at 31 g/ha: 31 g ai/ha, 0 is no effect, 100 is complete control
Summary of the method: as §2

[15] = test system: pigweed (Amaranthus retroflexus); assay: Test A preemergence; conditions: Amaranthus retroflexus, pre-emergence, 240 h, 0 to 100 scale where 0 is no effect and 100 is complete control, read-out: Pigweed plant response rating; for pest or weed control at 31 g/ha: 31 g ai/ha, Preemergence; for pest or weed control at 125 g/ha: 125 g ai/ha, preemergence, visual injury rating, approximately 10 d
[16] = test system: giant foxtail (Setaria faberii); assay: Test A preemergence; conditions: Setaria faberi, pre-emergence, 240 h, 0 to 100 scale where 0 is no effect and 100 is complete control, read-out: Foxtail, Giant plant response rating; for pest or weed control at 31 g/ha: 31 g ai/ha, Preemergence; for pest or weed control at 125 g/ha: 125 g ai/ha, preemergence, visual injury rating, approximately 10 d
Summary of the method: as §2

[17] = test system: ryegrass, Italian (Italian ryegrass, Lolium multiflorum); assay: Test A preemergence; conditions: Lolium multiflorum, pre-emergence, 240 h, 0 to 100 scale where 0 is no effect and 100 is complete control, read-out: Ryegrass, Italian plant response rating; for pest or weed control at 31 g/ha: 31 g ai/ha, Preemergence; for pest or weed control at 125 g/ha: 125 g ai/ha, preemergence, visual injury rating, approximately 10 d
Summary of the method: as §2

[18] = test system: barnyardgrass (Echinochloa crus-galli); assay: Test A preemergence; conditions: Echinochloa crus-galli, pre-emergence, 240 h, 0 to 100 scale where 0 is no effect and 100 is complete control, read-out: Barnyardgrass plant response rating; for pest or weed control at 31 g/ha: 31 g ai/ha, Preemergence; for pest or weed control at 125 g/ha: 125 g ai/ha, preemergence, visual injury rating, approximately 10 d
Summary of the method: as §2

[19] = test system: Kochia (Kochia scoparia); assay: Test A preemergence; conditions: Bassia scoparia, pre-emergence, 240 h, 0 to 100 scale where 0 is no effect and 100 is complete control, read-out: Kochia plant response rating; for pest or weed control at 31 g/ha: 31 g ai/ha, Preemergence; for pest or weed control at 125 g/ha: 125 g ai/ha, preemergence, visual injury rating, approximately 10 d
Summary of the method: as §2

[20] = test system: ragweed (common ragweed, Ambrosia elatior); assay: Test A preemergence; conditions: Ambrosia artemisiifolia, pre-emergence, 240 h, 0 to 100 scale where 0 is no effect and 100 is complete control, read-out: Ragweed plant response rating; for pest or weed control at 31 g/ha: 31 g ai/ha, Preemergence; for pest or weed control at 125 g/ha: 125 g ai/ha, preemergence, visual injury rating, approximately 10 d
Summary of the method: as §2

SMILES	pest or weed control at 250 g/ha [1] [%]	pest or weed control at 250 g/ha [2] [%]	pest or weed control at 250 g/ha [3] [%]	pest or weed control at 250 g/ha [4] [%]	pest or weed control at 125 g/ha [5] [%]	pest or weed control at 31 g/ha [5] [%]	pest or weed control at 125 g/ha [6] [%]	pest or weed control at 31 g/ha [6] [%]	pest or weed control at 125 g/ha [7] [%]	pest or weed control at 31 g/ha [7] [%]	pest or weed control at 125 g/ha [8] [%]	pest or weed control at 31 g/ha [8] [%]	plant injury at 125 g/ha [9] [%]	plant injury at 31 g/ha [9] [%]	pest or weed control at 125 g/ha [10] [%]	pest or weed control at 31 g/ha [10] [%]	plant injury at 125 g/ha [11] [%]	plant injury at 31 g/ha [11] [%]	pest or weed control at 125 g/ha [12] [%]	pest or weed control at 31 g/ha [12] [%]	other results
CN1C[C@H](c2csc3c2CCOC3)[C@@H](C(=O)Nc2cccc(F)c2F)C1=O [Compound 1268]	85	20	0	95	0	0	90	50	20	0	0	0	0	0	90	80	0	0	0	0	pest or weed control at 125 g/ha [13]: 0%; pest or weed control at 31 g/ha [13]: 0%; pest or weed control at 125 g/ha [14]: 0%; pest or weed control at 31 g/ha [14]: 0%; pest or weed control at 31 g/ha [15]: 0%; pest or weed control at 125 g/ha [15]: 0%; pest or weed control at 31 g/ha [16]: 70%; pest or weed control at 125 g/ha [16]: 90%; pest or weed control at 31 g/ha [17]: 0%; pest or weed control at 125 g/ha [17]: 20%; pest or weed control at 31 g/ha [18]: 90%; pest or weed control at 125 g/ha [18]: 90%; pest or weed control at 31 g/ha [19]: 0%; pest or weed control at 125 g/ha [19]: 0%; pest or weed control at 31 g/ha [20]: 0%; pest or weed control at 125 g/ha [20]: 0%
CN1C[C@H](c2ccc(C(F)F)cc2)[C@@H](C(=O)Nc2cccnc2F)C1=O [Compound 1274]	20	0	0	100	20	0	90	50	20	0	60	50	60	20	90	50	30	30	70	50	pest or weed control at 125 g/ha [13]: 30%; pest or weed control at 31 g/ha [13]: 0%; pest or weed control at 125 g/ha [14]: 30%; pest or weed control at 31 g/ha [14]: 0%; pest or weed control at 31 g/ha [15]: 30%; pest or weed control at 125 g/ha [15]: 70%; pest or weed control at 31 g/ha [16]: 80%; pest or weed control at 125 g/ha [16]: 90%; pest or weed control at 31 g/ha [17]: 0%; pest or weed control at 125 g/ha [17]: 20%; pest or weed control at 31 g/ha [18]: 30%; pest or weed control at 125 g/ha [18]: 90%; pest or weed control at 31 g/ha [19]: 30%; pest or weed control at 125 g/ha [19]: 70%; pest or weed control at 31 g/ha [20]: 20%; pest or weed control at 125 g/ha [20]: 80%
